One molecule from patent US20130296436A1, “AMIDINE COMPOUNDS AND USE THEREOF FOR PLANT DISEASE CONTROL” (SUMITOMO CHEMICAL COMPANY, LIMITED, priority 2010, published 2013) can be followed below.

The assay concerns Pyrenophora teres. The experiment in a line: Test Example 8: barley Pyrenophora teres, foliar application before inoculation, 50 ppm. The format is in vivo. The conditions noted are these: barley (Nishinohoshi), 50 ppm foliar application, inoculated two days after, 3 days + 7 days.

For `CCN(C)/C=N/c1cc(C)c(OCC(F)(F)C(F)(F)C(F)(F)C(F)(F)C(F)(F)F)cc1C` [present compound 7], the “lesion area on the treated plant relative to the area of lesions on an untreated plant” value is reported as not above 30%.
